{"source": "patent US8202873B2", "about": "“2-[4-(pyrazol-4-ylalkyl)piperazin-1-yl]-3-phenyl pyrazines as 5-HT7 receptor antagonists” (Eli Lilly and Company, priority 2007, dated 2012)", "key": {"[1]": {"target": "T1, 5-HT7 receptor (Homo sapiens, UniProt P34969)", "T1 construct": "expressed in transfected cells; host or cells: AV-12 cells", "T1 sequence (P34969 whole entry)": "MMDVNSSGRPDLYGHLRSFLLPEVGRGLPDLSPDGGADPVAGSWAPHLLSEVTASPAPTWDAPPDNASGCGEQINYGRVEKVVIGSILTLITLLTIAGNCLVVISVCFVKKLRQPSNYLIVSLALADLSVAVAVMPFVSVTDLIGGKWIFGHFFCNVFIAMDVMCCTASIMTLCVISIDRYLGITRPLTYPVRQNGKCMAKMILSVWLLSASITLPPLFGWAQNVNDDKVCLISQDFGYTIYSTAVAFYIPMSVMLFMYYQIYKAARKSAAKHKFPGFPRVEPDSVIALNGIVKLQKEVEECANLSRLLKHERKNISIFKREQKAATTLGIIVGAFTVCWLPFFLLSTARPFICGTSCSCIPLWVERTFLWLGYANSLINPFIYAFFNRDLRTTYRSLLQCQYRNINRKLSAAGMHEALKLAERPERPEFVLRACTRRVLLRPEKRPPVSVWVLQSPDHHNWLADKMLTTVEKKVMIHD", "experiment": "Functional antagonist assay: measurement of cAMP formation", "assay_type": "cell-based", "method": "For cAMP functional assays, the 5-HT7-expressing cells from above are grown in 150 cm^2 flasks and processed essentially as follows. The media is aspirated from the flasks and cells are washed with 1 mL PBS. The cells are trypsinized and resuspended in complete media. A sample of the cells is counted and the remainder is centrifuged as above for 3 min. The resulting cell pellet is resuspended in PBS at a concentration of 1×10^6 cells per mL and used directly in the cAMP assay as described.\nThe 5-HT7 receptor is functionally coupled to a G-protein as measured by the ability of serotonin and serotonergic drugs to stimulate cAMP production in CHO cells transfected with the 5-HT7 receptor. (Ruat, et al., Proceedings of the National Academy of Sciences (USA), 90:8547-8551, 1993.) Accordingly, functional receptor activity can be measured by measuring adenylate cyclase activity using a commercially available cell-based, homogeneous, time resolved fluorescence assay kit, as for example the kit produced by Cisbio-US, Inc. (Bedford, Mass.). Essentially, and using the protocol and reagents provided by the manufacturer, approximately 20,000 human 5-HT7 receptor-expressing AV-12 cells (as described above) are used with test compound dose concentrations in the range described for the binding assay. […] A cAMP standard curve is also run in every experiment. After the assay plates are read in an Envision™ instrument (Perkin-Elmer, Wellesley Mass.), the data is normalized to the standard curve and converted to percent inhibition for data analysis as described above for the receptor binding assay results. The Kb (nM) is calculated as a measure of the antagonist potency of the compound."}, "[2]": {"test_system": "Male Sprague Dawley rats", "experiment": "Formalin model of persistent pain", "assay_type": "in vivo", "settings": "formalin into hind paw", "method": "The “formalin model” of persistent pain, particularly for inflammatory pain and neuropathic pain, is well known and can be used to test compounds for pain blocking and/or analgesic activity. (see Shibata M. et al., Pain (1989) 38: 347-352; and Tjolsen A. et al., Pain (1992) 51:5-17.)\nMale Sprague Dawley rats (Harlan Labs, Indianapolis, Ind.) weighing between 200-250 g are maintained at constant temperature (21-23° C.) and light (12 hr. light/12 hr. dark), with free access to food and water for 7 days prior to testing. All testing is conducted during the light cycle after fasting over night and with the testing room temperature maintained at constant temperature (21-23° C.). […]\nThe animals are administered either vehicle or test compound and individually placed in holding cylinders. […] The cylinders are then placed on the load cells of the detection system and the response monitored continuously for 60 min. in 1-second bins (i.e. collections periods). As previously described by Jett and Michelson, the formalin-induced movements, “events,” detected by the system include licking and flinching the affected paw. […]\nData are evaluated by one-way analysis of variance (ANOVA) and the appropriate contrasts analyzed by the Dunnett ‘t’ test for 2-sided comparisons using JMP statistical analysis program (v5.1.1 SAS Institute Inc., Cary, N.C.). […]"}, "[3]": {"test_system": "adult male CF-1 mice", "experiment": "Foot electroshock stress induced cGMP elevation model for anxiety", "assay_type": "in vivo", "settings": "normalized to vehicle/no stress group, mean", "text": "The foot electroshock stress induced cGMP elevation model for anxiety is an established anxiety model, wherein stress from an unavoidable electroshock to the feet induces an elevation in cerebellar cGMP levels, which elevation is reduced or blocked by preadministration of anxiolytic compounds (Sethy and Oien (1991), Pharmacology Biochemistry & Behavior, vol. 39, pg. 379-382). Briefly, adult male CF-1 mice (25-30 g Harlan, Indianapolis, Ind.) are housed under a 12-hr light/dark cycle in a temperature and humidity controlled environment. Mice are habituated to the environment for at least 3 days and all studies are carried out between 9:00 AM and 12:00 noon to reduce the effects of diurnal fluctuations. Test mice are given a single intraperitoneal injection of test compound or control (vehicle is 3% DMSO, 20% emulphor stock, 10% lactic acid stock) and are sacrificed approximately 30 min. after dosing, using a beam of microwave radiation (microwave fixation system model GA5013; Gerling Applied Engineering, Modesto, Calif.) focused on the skull for 0.5 sec. at high power setting. This method preserves tissue cGMP content. After microwaving, a small piece (10-20 mg) of cerebellar cortex is quickly removed from the skull. The tissue is weighed and then homogenized in 2 ml of 1.0% perchloric acid. Tissue homogenate is kept on ice for 30 min followed by 5 min. in a boiling water bath. The homogenate is then centrifuged at 11,700 g for 20 min. 1 mL of supernatant is then acetylated with 40 μl of triethylamine and 20 μl of acetic anhydride, vortexed, and centrifuged at 13,000 g for 20 min at 4° C. Acetylated mouse cerebellum samples are stored at 4° C. pending cGMP analysis by radioimmunoassay with the cGMP ^125I Flash Plate radioimmunoassay test kit (PerkinElmer Life and Analytical Sciences, Boston, Mass.) on duplicate samples from each animal as per manufacturer's instructions.\nFor stressed mouse groups, 30 min. post injection, mice are subjected to a 1.0 mA foot-shock for 10 sec. in a Habitest Operant cage equipped with a modular shock floor (Habitest Modular Test System, Coulbourn Instruments, Allentown, Pa.). Mice are then sacrificed and cerebellar cortex samples are processed as described.\nFor each animal, cGMP levels are normalized to wet tissue weight and used to compute group averages and S.E.M. (typically 4-6 mice per group). All data are analyzed on the log scale to correct problems with heterogeneity of variance. Statistical analyses are performed using ANOVA followed by Dunnett's method to compare each treatment group to the vehicle group."}, "[4]": {"test_system": "Male Sprague Dawley rats", "experiment": "L5/L6 nerve ligation model (Chung model) of persistent pain", "assay_type": "in vivo", "settings": "i.p.", "method": "The L5/L6 Nerve Ligation model (Chung model) is a well established model for persistent pain, specifically neuropathic pain. Surgery is performed on male Sprague Dawley rats (Harlan, Indianapolis, Ind.), weighing 150-200 g at the time of surgery as previously described (Kim and Chung, 1992). Briefly, neuropathic injury is produced by tightly ligating the left L5 and L6 spinal nerves under gas anesthesia with a mixture of isoflurane (3% for induction and 2% for maintenance) and O2. Following surgery, development of neuropathic pain is evaluated daily by measuring mechanical sensitivity of the injured paw to von Frey filaments with incremental bending forces (0.5-15 g) as described by (Chaplan et al., 1994). […] Test drug or vehicle is administered i.p. and the mechanical threshold for paw flinching is measured at 0.5, 1, 2, 3, 4 and 6 hr. after dosing. Measurement of the mechanical threshold for paw flinching is also done prior to surgery (preoperative control). Data are expressed as the threshold force required to elicit a response (g) as means±S.E.M. (standard error of the mean)."}, "[5]": {"test_system": "male Harlan Sprague-Dawley rats", "experiment": "Animal model of dural plasma protein extravasation (PPE)", "assay_type": "in vivo", "settings": "saline controls approximately 2.0, full prevention approximately 1.0", "text": "The dural plasma protein extravasation model is an established model for migraine. The ability of a test compound to reduce extravasation of plasma proteins into the dura under assay conditions is considered indicative of the compound's ability to reduce or prevent the dural inflammation thought to be symptomatic of migraine. (see Johnson, K. W., et al., Neuroreport, 8 (1997) 2237-2240.)\nTo assay compounds for their ability to reduce or prevent dural plasma protein extravasation, male Harlan Sprague-Dawley rats (250-350 g) are anesthetized with sodium pentobarbital (65 mg/kg, i.p.) and placed in a stereotaxic frame (David Kopf Instruments) with the incisor bar set at −2.5 mm. Following a midline sagital scalp incision, 2 pairs of bilateral holes are drilled through the skull (3.2 mm posterially, 1.8 and 3.8 mm laterally, all coordinates referenced to bregma). […]\nThe amount of FITC-BSA for each sample is quantified with a fluorescence microscope (Zeiss) equipped with a grating monochromator, a spectrophotometer, and a computer driven stage. Fluorescence measurements are taken at 25 points in a 5×5 grid in 500 μm steps on each dural sample with an excitation wavelength of approximately 490 nm and emission intensity measured at approximately 535 nm. The mean and standard deviation of the 25 measurements are determined. […]"}}, "note": "Marks after values point to notes of the source that are not given here.", "data": [{"smiles": "Cl.Cn1cc(CN2CCN(c3cccnc3-c3ccc(F)cc3)CC2)cn1", "note": "[Example 74, 1-[2-(4-Fluoro-phenyl)-pyridin-3-yl]-4-(1-methyl-1H-pyrazol-4-ylmethyl)-piperazine hydrochloride]", "values": [{"measurement": "Kb", "setting": "[1]; antagonist potency, cAMP, 5-HT7-expressing AV-12 cells", "result": "~44", "unit": "nM"}, {"measurement": "antagonist character at the 5-HT7 receptor", "setting": "[1]; cAMP formation", "result": "full antagonist"}, {"measurement": "inhibition", "setting": "[1]; cAMP formation, 5-HT7-expressing AV-12 cells", "result": "about 96%"}]}, {"smiles": "Cc1c(CN2CCN(c3nccnc3-c3ccc(F)cc3)CC2)cnn1-c1ccccc1.Cl", "note": "[Example 19, 4-(5-methyl-1-phenyl-1H-pyrazol-4-ylmethyl)-3′-(4-fluorophenyl)-3,4,5,6-tetrahydro-2H-[1,2′]bipyrazine hydrochloride]", "values": [{"measurement": "formalin-induced events, early and late phases", "setting": "[2]", "result": "active on both the early and late phases"}]}, {"smiles": "CNC1=Nc2ccc(Cl)cc2C(c2ccccc2)=[N+]([O-])C1", "note": "[Chlordiazepoxide, chlordiazepoxide]", "values": [{"measurement": "cerebellar cGMP, stress", "setting": "[3]; 10 mg/kg (ip, 30 min)/stress", "result": 129, "unit": "%"}, {"measurement": "cerebellar cGMP, stress", "setting": "[3]; 30 mg/kg (ip, 30 min)/stress", "result": "106* percent"}, {"measurement": "cerebellar cGMP, stress", "setting": "[3]; 60 mg/kg (ip, 30 min)/stress", "result": "71* percent"}]}, {"smiles": "Cc1nnc2n1-c1ccc(Cl)cc1C(c1ccccc1)=NC2", "note": "[Alprazolam, alprazolam]", "values": [{"measurement": "cerebellar cGMP, stress", "setting": "[3]; 1 mg/kg (ip, 30 min)/stress", "result": "60* percent"}]}, {"smiles": "Cc1ccc(-c2nccnc2N2CCN(Cc3cn(C)nc3C)CC2)cc1.O=C(O)/C=C/C(=O)O", "note": "[Example 186, 4-(1,3-Dimethyl-1H-pyrazol-4-ylmethyl)-3′-(4-methylphenyl)-3,4,5,6-tetrahydro-2H-[1,2′]bipyrazine fumarate]", "values": [{"measurement": "threshold force required to elicit a response (mechanical allodynia)", "setting": "[4]", "result": "active"}, {"measurement": "cerebellar cGMP, stress", "setting": "[3]; 3 mg/kg (ip, 30 min)/stress", "result": 278, "unit": "%"}, {"measurement": "cerebellar cGMP, stress", "setting": "[3]; 10 mg/kg (ip, 30 min)/stress", "result": 264, "unit": "%"}, {"measurement": "cerebellar cGMP, stress", "setting": "[3]; 30 mg/kg (ip, 30 min)/stress", "result": 234, "unit": "%"}, {"measurement": "cerebellar cGMP, stress", "setting": "[3]; 60 mg/kg (ip, 30 min)/stress", "result": "117* percent"}]}, {"smiles": "Cc1c(CN2CCN(c3nccnc3-c3cccc(F)c3)CC2)cnn1C.Cl", "note": "[Example 127, 4-(1,5-Dimethyl-1H-pyrazol-4-ylmethyl)-3′-(3-fluoro-phenyl)-3,4,5,6-tetrahydro-2H-[1,2′]bipyrazinyl hydrochloride]", "values": [{"measurement": "ratio of extravasation in the dura, stimulated side over unstimulated side", "setting": "[5]", "result": "about 1.16"}]}, {"smiles": "CC1CCN(CC[C@H]2CCCN2S(=O)(=O)c2cccc(O)c2)CC1", "note": "[SB-269970]", "values": [{"measurement": "cerebellar cGMP, stress", "setting": "[3]; 3 mg/kg (ip, 30 min)/stress", "result": 270, "unit": "%"}, {"measurement": "cerebellar cGMP, stress", "setting": "[3]; 10 mg/kg (ip, 30 min)/stress", "result": 225, "unit": "%"}, {"measurement": "cerebellar cGMP, stress", "setting": "[3]; 30 mg/kg (ip, 30 min)/stress", "result": "171* percent"}]}]}
